According to patent publication US6706663B2, “Herbicidal 3-heterocyclic substituted benzisothiazole and benzisoxazole compounds” (Wyeth, priority 2000, dated 2004):

What was measured:
[1] = tested on: ABUTH (Abutilon theophrasti); assay: Preemergence herbicidal evaluation; format: in vivo, Medic.; conditions: preemergence, rated 4-5 weeks after treatment
[2] = tested on: CHEAL (Chenopodium album); assay: Postemergence herbicidal evaluation; format: in vivo, L.; conditions: postemergence
Method in brief: (§1)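 Seedlings grown about two weeks in flats, sprayed, then kept under standard greenhouse care. Rated visually 4–5 weeks after treatment on a 0–9 scale (stand, vigour, malformation, size, chlorosis, overall appearance) relative to untreated control; repeat tests averaged.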

[3] = tested on: AMBEL (Ambrosia artemisifolia); assay: Postemergence herbicidal evaluation; format: in vivo, L.; conditions: postemergence
Method in brief: as §1

[4] = tested on: CASOB (Cassia obtusifolia); assay: Postemergence herbicidal evaluation; format: in vivo, L.; conditions: postemergence
Method in brief: as §1

GALAP (Galium aparine) [5] = assay: Postemergence herbicidal evaluation; format: in vivo; conditions: postemergence
Method in brief: as §1

[6] = tested on: ABUTH (Abutilon theophrasti); assay: Postemergence herbicidal evaluation; format: in vivo, Medic.; conditions: postemergence
Method in brief: as §1

[7] = tested on: CHEAL (Chenopodium album); assay: Preemergence herbicidal evaluation; format: in vivo, L.; conditions: preemergence, rated 4-5 weeks after treatment
Method in brief: (§2)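 Seeds planted in potting soil cups and sprayed preemergence with aqueous acetone compound solution. Greenhouse-grown; rated 4–5 weeks after treatment on a 0-9 visual scale (stand, vigor, malformation, size, chlorosis, appearance) versus control.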

[8] = tested on: AMBEL (Ambrosia artemisifolia); assay: Preemergence herbicidal evaluation; format: in vivo, L.; conditions: preemergence, rated 4-5 weeks after treatment
Method in brief: as §2

[9] = tested on: CASOB (Cassia obtusifolia); assay: Preemergence herbicidal evaluation; format: in vivo, L.; conditions: preemergence, rated 4-5 weeks after treatment
Method in brief: as §2

[10] = tested on: TRZAWR (Wheat, Winter, cv Riband); assay: Preemergence herbicidal evaluation; format: in vivo, Triticum aestivum; conditions: preemergence, rated 4-5 weeks after treatment
Method in brief: as §2

ORYSAT (Rice, Tebonnet) [11] = assay: Postemergence herbicidal evaluation; format: in vivo, Oryza sativa, (L.) Tebonnet; conditions: postemergence
Method in brief: as §1

[12] = tested on: ECHCG (Echinochloa crus-galli); assay: Postemergence herbicidal evaluation; format: in vivo, (L.) Beau; conditions: postemergence
Method in brief: as §1

ORYSAT (Rice, Tebonnet) [13] = assay: Flooded paddy, post-transplant rice tolerance; format: in vivo, Oryza sativa, (L.) Tebonnet; conditions: flooded paddy, post-transplant rice, rated 3-4 weeks after treatment, 0-9 rating scale
Method in brief: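 Ten-day-old seedlings, 2/pot, silt loam; flood kept 1.5–3 cm over soil; herbicide applied post-transplant; greenhouse; score 0–9 visual vs control.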

ZEAMX (Corn, Field) = assay: Postemergence herbicidal evaluation; format: in vivo, Zea mays, L.; conditions: postemergence
Method in brief: as §1

GALAP (Galium aparine) [14] = assay: Preemergence herbicidal evaluation; format: in vivo; conditions: preemergence, rated 4-5 weeks after treatment
Method in brief: as §2

[15] = tested on: IPOHE (Ipomoea hederacea); assay: Preemergence herbicidal evaluation; format: in vivo, (L.) Jacq.; conditions: preemergence, rated 4-5 weeks after treatment
ORYSAT (Rice, Tebonnet) [16] = assay: Preemergence herbicidal evaluation; format: in vivo, Oryza sativa, (L.) Tebonnet; conditions: preemergence, rated 4-5 weeks after treatment
[17] = tested on: GLXMAW (Soybean, Williams); assay: Postemergence herbicidal evaluation; format: in vivo, Glycine max, (L.) Merr. cv Williams; conditions: postemergence
Method in brief: as §1

[18] = tested on: SAGPY (Sagittaria pygmaea); assay: Flooded paddy, preemergence weed control; format: in vivo, L.; conditions: rated 3-4 weeks after treatment, 0-9 rating scale
Method in brief: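 Scoring used a 0-9 visual scale relative to control. Before that, seeds or propagules were planted shallowly in silt loam and flooded to 1.5–3 cm, a depth maintained throughout, with greenhouse care during the test.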

SMILES: Cn1c(C(F)(F)F)cc(=O)n(-c2ccc3snc(-c4ccoc4)c3c2)c1=O [Compound 83, 3-[3-(3-furyl)-1,2-benzisothiazol-5-yl]-1-methyl-6-(trifluoromethyl)uracil]
- Preemergence herbicidal rating ABUTH ([1]; rate 0.0620 kg/ha): 2.0
- Preemergence herbicidal rating ABUTH ([1]; rate 0.1250 kg/ha): 7.5
- Preemergence herbicidal rating ABUTH ([1]; rate 0.2500 kg/ha): 9.0
- CHEAL herbicidal rating ([2]; rate 0.0320 kg/ha): 3.0
- CHEAL herbicidal rating ([2]; rate 0.0620 kg/ha): 6.0
- AMBEL herbicidal rating ([3]; rate 0.0320 kg/ha): 2.0
- AMBEL herbicidal rating ([3]; rate 0.0620 kg/ha): 6.0
- CASOB herbicidal rating ([4]; rate 0.0320 kg/ha): 4.0
- CASOB herbicidal rating ([4]; rate 0.0620 kg/ha): 6.0
- GALAP herbicidal rating (GALAP (Galium aparine) [5]; rate 0.0320 kg/ha): 2.0
- GALAP herbicidal rating (GALAP (Galium aparine) [5]; rate 0.0620 kg/ha): 3.0
- ABUTH herbicidal rating ([6]; rate 0.0320 kg/ha): 6.0
- ABUTH herbicidal rating ([6]; rate 0.0620 kg/ha): 9.0
- Preemergence herbicidal rating CHEAL ([7]; rate 0.0620 kg/ha): 4.0
- Preemergence herbicidal rating CHEAL ([7]; rate 0.1250 kg/ha): 9.0
- Preemergence herbicidal rating CHEAL ([7]; rate 0.2500 kg/ha): 9.0
- Preemergence herbicidal rating AMBEL ([8]; rate 0.0620 kg/ha): 6.0
- Preemergence herbicidal rating AMBEL ([8]; rate 0.1250 kg/ha): 7.5
- Preemergence herbicidal rating AMBEL ([8]; rate 0.2500 kg/ha): 9.0
- Preemergence herbicidal rating CASOB ([9]; rate 0.0620 kg/ha): 0.0
- Preemergence herbicidal rating CASOB ([9]; rate 0.1250 kg/ha): 0.0
- Preemergence herbicidal rating CASOB ([9]; rate 0.2500 kg/ha): 1.0
- Preemergence herbicidal rating TRZAWR ([10]; rate 0.0620 kg/ha): 3.0
- Preemergence herbicidal rating TRZAWR ([10]; rate 0.1250 kg/ha): 4.0
- Preemergence herbicidal rating TRZAWR ([10]; rate 0.2500 kg/ha): 5.0
- ORYSAT herbicidal rating (ORYSAT (Rice, Tebonnet) [11]; rate 0.0320 kg/ha): 1.5
- ORYSAT herbicidal rating (ORYSAT (Rice, Tebonnet) [11]; rate 0.0620 kg/ha): 3.0
- ECHCG herbicidal rating ([12]; rate 0.0320 kg/ha): 2.0
- ECHCG herbicidal rating ([12]; rate 0.0620 kg/ha): 3.0
- herbicidal rating, ORYSAT (rice tolerance) (ORYSAT (Rice, Tebonnet) [13]; rate 0.0080 kg/ha): 0.0
- herbicidal rating, ORYSAT (rice tolerance) (ORYSAT (Rice, Tebonnet) [13]; rate 0.0320 kg/ha): 2.0
- herbicidal rating, ORYSAT (rice tolerance) (ORYSAT (Rice, Tebonnet) [13]; rate 0.1250 kg/ha): 2.0
- ZEAMX herbicidal rating (ZEAMX (Corn, Field); rate 0.0320 kg/ha): 2.5
- ZEAMX herbicidal rating (ZEAMX (Corn, Field); rate 0.0620 kg/ha): 3.0
- Preemergence herbicidal rating GALAP (GALAP (Galium aparine) [14]; rate 0.1250 kg/ha): 4.0
- Preemergence herbicidal rating IPOHE ([15]; rate 0.0620 kg/ha): 3.0
- Preemergence herbicidal rating IPOHE ([15]; rate 0.1250 kg/ha): 5.0
- Preemergence herbicidal rating IPOHE ([15]; rate 0.2500 kg/ha): 5.5
- Preemergence herbicidal rating ORYSAT (ORYSAT (Rice, Tebonnet) [16]; rate 0.0620 kg/ha): 0.0
- Preemergence herbicidal rating ORYSAT (ORYSAT (Rice, Tebonnet) [16]; rate 0.1250 kg/ha): 3.5
- Preemergence herbicidal rating ORYSAT (ORYSAT (Rice, Tebonnet) [16]; rate 0.2500 kg/ha): 5.5
- GLXMAW herbicidal rating ([17]; rate 0.0320 kg/ha): 4.0
- GLXMAW herbicidal rating ([17]; rate 0.0620 kg/ha): 6.0
- herbicidal rating, SAGPY ([18]; rate 0.0080 kg/ha): 0.0
- herbicidal rating, SAGPY ([18]; rate 0.0320 kg/ha): 0.0
- herbicidal rating, SAGPY ([18]; rate 0.1250 kg/ha): 0.0

SMILES: CSCC1COC(c2nsc3ccc(-n4c(=O)cc(C(F)(F)F)n(C)c4=O)cc23)O1 (stereo not drawn) [Compound 84, 1-methyl-3-[3-[4-[(methylthio)methyl]-1,3-dioxolan-2-yl]-1,2-benzisothiazol-5-yl]-6-(trifluoromethyl)uracil]
- Preemergence herbicidal rating ABUTH ([1]; rate 0.0620 kg/ha): 9.0
- Preemergence herbicidal rating ABUTH ([1]; rate 0.1250 kg/ha): 9.0
- Preemergence herbicidal rating ABUTH ([1]; rate 0.2500 kg/ha): 9.0
- CHEAL herbicidal rating ([2]; rate 0.0320 kg/ha): 9.0
- CHEAL herbicidal rating ([2]; rate 0.0620 kg/ha): 9.0
- CHEAL herbicidal rating ([2]; rate 0.1250 kg/ha): 9.0
- AMBEL herbicidal rating ([3]; rate 0.0320 kg/ha): 7.5
- AMBEL herbicidal rating ([3]; rate 0.0620 kg/ha): 9.0
- AMBEL herbicidal rating ([3]; rate 0.1250 kg/ha): 9.0
- CASOB herbicidal rating ([4]; rate 0.0320 kg/ha): 7.0
- CASOB herbicidal rating ([4]; rate 0.0620 kg/ha): 7.0
- CASOB herbicidal rating ([4]; rate 0.1250 kg/ha): 9.0
- GALAP herbicidal rating (GALAP (Galium aparine) [5]; rate 0.0320 kg/ha): 6.5
- GALAP herbicidal rating (GALAP (Galium aparine) [5]; rate 0.0620 kg/ha): 7.5
- GALAP herbicidal rating (GALAP (Galium aparine) [5]; rate 0.1250 kg/ha): 9.0
- ABUTH herbicidal rating ([6]; rate 0.0320 kg/ha): 9.0
- ABUTH herbicidal rating ([6]; rate 0.0620 kg/ha): 9.0
- ABUTH herbicidal rating ([6]; rate 0.1250 kg/ha): 9.0
- Preemergence herbicidal rating CHEAL ([7]; rate 0.0620 kg/ha): 9.0
- Preemergence herbicidal rating CHEAL ([7]; rate 0.1250 kg/ha): 9.0
- Preemergence herbicidal rating CHEAL ([7]; rate 0.2500 kg/ha): 9.0
- Preemergence herbicidal rating AMBEL ([8]; rate 0.0620 kg/ha): 9.0
- Preemergence herbicidal rating AMBEL ([8]; rate 0.1250 kg/ha): 9.0
- Preemergence herbicidal rating AMBEL ([8]; rate 0.2500 kg/ha): 9.0
- Preemergence herbicidal rating CASOB ([9]; rate 0.0620 kg/ha): 4.0
- Preemergence herbicidal rating CASOB ([9]; rate 0.1250 kg/ha): 8.0
- Preemergence herbicidal rating CASOB ([9]; rate 0.2500 kg/ha): 9.0
- Preemergence herbicidal rating TRZAWR ([10]; rate 0.0620 kg/ha): 2.0
- Preemergence herbicidal rating TRZAWR ([10]; rate 0.1250 kg/ha): 5.0
- ORYSAT herbicidal rating (ORYSAT (Rice, Tebonnet) [11]; rate 0.0320 kg/ha): 5.3
- ORYSAT herbicidal rating (ORYSAT (Rice, Tebonnet) [11]; rate 0.0620 kg/ha): 6.5
- ORYSAT herbicidal rating (ORYSAT (Rice, Tebonnet) [11]; rate 0.1250 kg/ha): 9.0
- ECHCG herbicidal rating ([12]; rate 0.0320 kg/ha): 4.5
- ECHCG herbicidal rating ([12]; rate 0.0620 kg/ha): 6.5
- ECHCG herbicidal rating ([12]; rate 0.1250 kg/ha): 9.0
- herbicidal rating, ORYSAT (rice tolerance) (ORYSAT (Rice, Tebonnet) [13]; rate 0.0080 kg/ha): 0.0
- herbicidal rating, ORYSAT (rice tolerance) (ORYSAT (Rice, Tebonnet) [13]; rate 0.0320 kg/ha): 1.5
- herbicidal rating, ORYSAT (rice tolerance) (ORYSAT (Rice, Tebonnet) [13]; rate 0.1250 kg/ha): 5.5
- ZEAMX herbicidal rating (ZEAMX (Corn, Field); rate 0.0320 kg/ha): 4.8
- ZEAMX herbicidal rating (ZEAMX (Corn, Field); rate 0.0620 kg/ha): 6.0
- ZEAMX herbicidal rating (ZEAMX (Corn, Field); rate 0.1250 kg/ha): 8.5
- Preemergence herbicidal rating GALAP (GALAP (Galium aparine) [14]; rate 0.0620 kg/ha): 7.0
- Preemergence herbicidal rating GALAP (GALAP (Galium aparine) [14]; rate 0.1250 kg/ha): 8.0
- Preemergence herbicidal rating GALAP (GALAP (Galium aparine) [14]; rate 0.2500 kg/ha): 9.0
- Preemergence herbicidal rating IPOHE ([15]; rate 0.0620 kg/ha): 6.3
- Preemergence herbicidal rating IPOHE ([15]; rate 0.1250 kg/ha): 8.3
- Preemergence herbicidal rating IPOHE ([15]; rate 0.2500 kg/ha): 9.0
- Preemergence herbicidal rating ORYSAT (ORYSAT (Rice, Tebonnet) [16]; rate 0.0620 kg/ha): 2.5
- Preemergence herbicidal rating ORYSAT (ORYSAT (Rice, Tebonnet) [16]; rate 0.1250 kg/ha): 3.5
- Preemergence herbicidal rating ORYSAT (ORYSAT (Rice, Tebonnet) [16]; rate 0.2500 kg/ha): 6.0
- GLXMAW herbicidal rating ([17]; rate 0.0320 kg/ha): 8.5
- GLXMAW herbicidal rating ([17]; rate 0.0620 kg/ha): 9.0
- GLXMAW herbicidal rating ([17]; rate 0.1250 kg/ha): 9.0
- herbicidal rating, SAGPY ([18]; rate 0.0080 kg/ha): 0.0
- herbicidal rating, SAGPY ([18]; rate 0.0320 kg/ha): 0.0
- herbicidal rating, SAGPY ([18]; rate 0.1250 kg/ha): 4.0
